The values that follow come from ChEMBL document CHEMBL1201862, “PubChem BioAssay data set” (2004).

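Step 1: Grow cells in 96-well plates. Step 2: Expose to compound for 48 hours at 5 concentrations. Step 3: Interpolate endpoints linearly; if unreached, use highest concentration. At the GI50, growth is halved.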 Calls of active or inactive are those of the source. Cut-off read from the data, not from the text of the source: active = GI50 up to about 1.1 µM and inactive = higher.

Among the test systems are OVCAR-3; HCT-15; NCI-H23; SN12C; U-251; 786-0; MDA-MB-231; SK-MEL-2; SK-MEL-5; SW-620; KM12; NCI-H460; NCI/ADR-RES; SR; NCI-H226; PC-3; EKVX; UO-31; HOP-62; SF-268.
Holding throughout (assay): NCI-60 cell line screen, 48 h

As to `Cc1c(C)c2ccc(O)cc2[nH]c1=O`, the GI50 in the assay on OVCAR-3 is > 100 µM (inactive); with HCT-15 it was > 100 µM; in the assay on NCI-H23, > 100 µM (inactive); in the assay on SN12C, > 100 µM (inactive); in the assay with U-251, > 100 µM (inactive); in the assay with 786-0, > 100 µM (inactive). Also, the GI50 with MDA-MB-231, in the assay with SK-MEL-2, in the assay with SK-MEL-5, in the assay with SW-620, in the assay with KM12 and in the assay on NCI-H460 was > 100 µM (inactive) each time. Besides, the GI50 in the assay on NCI/ADR-RES, with SR, with NCI-H226, in the assay on PC-3, in the assay on EKVX and in the assay on UO-31 was > 100 µM (inactive) in each case. Moreover, the GI50 in the assay on HOP-62 is > 100 µM (inactive).

As for `Nn1c(-c2ccccc2)nn(C(=O)c2ccccc2)c1=O`, the GI50 in the assay with OVCAR-3 is > 100 µM (inactive); in the assay with HCT-15 it was > 100 µM; with NCI-H23, > 100 µM (inactive); in the assay on SN12C, 87.1 µM (inactive); with U-251 it was > 100 µM (inactive); with 786-0, > 100 µM (inactive). The GI50 in the assay on MDA-MB-231, in the assay with SK-MEL-5, in the assay with SW-620, in the assay with KM12, in the assay with SF-268 and in the assay on NCI-H460 was > 100 µM (inactive) throughout. The GI50 in the assay with NCI/ADR-RES, in the assay with SR, in the assay with NCI-H226, with PC-3, in the assay on EKVX and in the assay on UO-31 was > 100 µM (inactive) in each case. Also, in the assay with HOP-62, the GI50 is > 100 µM (inactive).

With `O=C1OC(C(O)CO)C(C(O)CO)OC1=O` (configuration not stated), the GI50 with OVCAR-3 is > 10 µM (inactive); with HCT-15 it was > 10 µM; in the assay on NCI-H23 it was > 10 µM (inactive); with SN12C, > 10 µM (inactive); with U-251, > 10 µM (inactive); in the assay with 786-0 it was > 10 µM (inactive). Further, the GI50 in the assay on MDA-MB-231, in the assay on SK-MEL-5, in the assay on SW-620, in the assay on KM12, in the assay with SF-268 and in the assay on NCI-H460 was > 10 µM (inactive) each time. The GI50 with NCI/ADR-RES, in the assay on SR, in the assay with NCI-H226, with PC-3, in the assay with EKVX and in the assay on UO-31 was > 10 µM (inactive) in each case. Further, the GI50 with HOP-62 is > 10 µM (inactive).

Take `COC(=O)c1c2c(cc3c1CC1(Cc4ccc(C(C)=O)cc4C1)C3)CCC2` (configuration not stated): the GI50 in the assay with OVCAR-3 is > 100 µM (inactive); in the assay with HCT-15, 31.8 µM; in the assay on NCI-H23, 46.5 µM (inactive); in the assay with SN12C it was 19.7 µM (inactive); in the assay on U-251, 50.7 µM (inactive); in the assay on 786-0, 51.8 µM (inactive). In addition, the GI50 with MDA-MB-231 is 20.4 µM (inactive); with SK-MEL-5, 18 µM (inactive); with SW-620 it was 28.3 µM (inactive); in the assay on KM12 it was 17.6 µM (inactive); in the assay with SF-268 it was 83.2 µM (inactive); with NCI-H460, 42.2 µM (inactive). The GI50 was 21.3 µM (inactive) with NCI/ADR-RES; 20.7 µM (inactive) in the assay with SR; 67.1 µM (inactive) with NCI-H226; 19.5 µM (inactive) in the assay on PC-3; 42.7 µM (inactive) with EKVX; 52.4 µM (inactive) in the assay on UO-31. Also, in the assay with HOP-62, the GI50 was 91.2 µM (inactive).

For `COc1cccc(C(C#N)NNC(=O)c2c(Cl)c(Cl)c(Cl)c(Cl)c2-c2nc3cc(C(=O)c4ccccc4)ccc3[nH]2)c1O` (configuration not stated), the GI50 was 2.2 µM (inactive) in the assay on OVCAR-3; 4.06 µM in the assay on HCT-15; 5.74 µM (inactive) with NCI-H23; 2.7 µM (inactive) with SN12C; 4.44 µM (inactive) in the assay on U-251; 4.06 µM (inactive) in the assay with 786-0. Also, the GI50 with MDA-MB-231 was 4.15 µM (inactive); with SK-MEL-2, 4.05 µM (inactive); in the assay with SK-MEL-5, 2.71 µM (inactive); with SW-620, 6.01 µM (inactive); in the assay on KM12, 3.64 µM (inactive); in the assay with NCI/ADR-RES, 2.54 µM (inactive). For the same compound, the GI50 was 2.91 µM (inactive) in the assay on SR; 3 µM (inactive) in the assay with NCI-H226; 3.62 µM (inactive) in the assay with PC-3; 14.3 µM (inactive) in the assay with EKVX; 6.84 µM (inactive) in the assay on UO-31; 2.03 µM (inactive) in the assay with HOP-62.

For the compound `NC(=S)SC1=NC(=O)C2(NN1)c1ccccc1-c1ccccc12`, the GI50 was > 10 µM in the assay on HCT-15; > 10 µM (inactive) in the assay on NCI-H23; > 10 µM (inactive) in the assay on SN12C; > 10 µM (inactive) with 786-0; > 10 µM (inactive) with MDA-MB-231; 6.12 µM (inactive) in the assay with SK-MEL-5. Also, the GI50 in the assay with SW-620 is > 10 µM (inactive); in the assay on KM12 it was > 10 µM (inactive); in the assay on SF-268, > 10 µM (inactive); in the assay with NCI-H460 it was 8.59 µM (inactive); in the assay with NCI/ADR-RES it was 6.84 µM (inactive); with SR it was > 10 µM (inactive). For the same compound, the GI50 in the assay with NCI-H226 is > 10 µM (inactive); in the assay with PC-3, > 10 µM (inactive); in the assay with EKVX, 6.58 µM (inactive); in the assay on UO-31, 9.1 µM (inactive); with HOP-62, > 10 µM (inactive).

As to `CN(C)S(=O)(=O)c1nc(Cl)c2nc[nH]c2n1`, the GI50 in the assay with OVCAR-3 is > 100 µM (inactive); in the assay with HCT-15, > 100 µM; in the assay on NCI-H23, > 100 µM (inactive); in the assay with SN12C, > 100 µM (inactive); with U-251 it was > 100 µM (inactive); in the assay on 786-0 it was > 100 µM (inactive). Further, the GI50 in the assay with MDA-MB-231, with SK-MEL-2, in the assay on SK-MEL-5, in the assay on SW-620, in the assay with KM12 and in the assay on SF-268 was > 100 µM (inactive) in each case. The GI50 in the assay on NCI/ADR-RES, in the assay with SR, in the assay with NCI-H226, in the assay with PC-3, with EKVX and in the assay on UO-31 was > 100 µM (inactive) throughout. The GI50 in the assay on HOP-62 was > 100 µM (inactive).

Regarding `Cc1coc2c1[C@@H](O)[C@@]1(C)[C@H](CCC[C@@H]1C)C2`, the GI50 in the assay with OVCAR-3 is 23.9 µM (inactive); in the assay with HCT-15 it was 23.8 µM; in the assay with NCI-H23 it was 50.9 µM (inactive); in the assay on SN12C, 24.7 µM (inactive); in the assay on 786-0 it was 34.8 µM (inactive); in the assay on MDA-MB-231, 27.2 µM (inactive). Further, the GI50 in the assay on SK-MEL-5 was 49.9 µM (inactive); with SW-620 it was 37.8 µM (inactive); in the assay with KM12, 85.3 µM (inactive); with SF-268, 34.6 µM (inactive); in the assay on NCI-H460, 45.5 µM (inactive); with NCI/ADR-RES it was 24.8 µM (inactive). The GI50 in the assay with SR was 21.6 µM (inactive); in the assay on NCI-H226 it was 25.5 µM (inactive); in the assay with PC-3, 36.5 µM (inactive); in the assay on EKVX it was 69 µM (inactive); with HOP-62, 40.5 µM (inactive).

With `COc1cc(S(=O)(=O)Nc2ccc(-c3csc(/N=C\c4ccccc4O)n3)cc2)ccc1Cl`, the GI50 was 28.5 µM (inactive) in the assay with OVCAR-3; 51.4 µM in the assay with HCT-15; 52.7 µM (inactive) in the assay on NCI-H23; 65.2 µM (inactive) in the assay with SN12C; > 100 µM (inactive) with 786-0; 53.6 µM (inactive) with MDA-MB-231. In addition, the GI50 in the assay on SK-MEL-2 was 29.2 µM (inactive); in the assay with SK-MEL-5, 70.5 µM (inactive); in the assay on SW-620, 37.8 µM (inactive); with KM12, 38.1 µM (inactive); in the assay on SF-268, 42 µM (inactive); in the assay with NCI/ADR-RES, > 100 µM (inactive). Further, the GI50 in the assay with SR was 31.6 µM (inactive); in the assay on NCI-H226, > 100 µM (inactive); with PC-3, 39.4 µM (inactive); in the assay on EKVX it was 29.8 µM (inactive); in the assay with UO-31 it was 31 µM (inactive); in the assay on HOP-62, 65.3 µM (inactive).

For the compound `O=C(CSc1nc2ccc(I)cc2c(=O)n1Cc1ccccc1)Nc1ccc(Br)cc1`, the GI50 is 63 µM (inactive) in the assay with OVCAR-3; 36 µM in the assay with HCT-15; > 100 µM (inactive) with NCI-H23; 37.2 µM (inactive) in the assay on SN12C; 39 µM (inactive) in the assay on U-251; 58.6 µM (inactive) with 786-0. The GI50 is 17.2 µM (inactive) with MDA-MB-231; 64.1 µM (inactive) with SK-MEL-2; 43.2 µM (inactive) with SK-MEL-5; 97.5 µM (inactive) in the assay on SW-620; 78.7 µM (inactive) in the assay with KM12; 12.2 µM (inactive) in the assay with SF-268. The GI50 with NCI/ADR-RES was 51.9 µM (inactive); in the assay on SR it was 11.3 µM (inactive); in the assay with NCI-H226, 25.9 µM (inactive); in the assay on PC-3 it was 17.5 µM (inactive); in the assay on EKVX, 12.9 µM (inactive); in the assay on UO-31, 0.114 µM (active). In the assay with HOP-62, the GI50 was 78.2 µM (inactive).

For the compound `Fc1cccc(C2SCc3nc4cc5ccccc5cc4n32)c1` (configuration not stated), the GI50 in the assay on OVCAR-3 was > 100 µM (inactive); in the assay on HCT-15 it was > 100 µM; in the assay with NCI-H23, > 100 µM (inactive); in the assay on SN12C, 53.3 µM (inactive); in the assay with U-251, > 100 µM (inactive); with 786-0 it was 69.3 µM (inactive). Also, the GI50 in the assay with MDA-MB-231, with SK-MEL-2, with SW-620, with KM12, with SF-268 and in the assay on NCI/ADR-RES was > 100 µM (inactive) in each case. The GI50 is > 100 µM (inactive) in the assay on SR; > 100 µM (inactive) in the assay on NCI-H226; > 100 µM (inactive) in the assay with PC-3; > 100 µM (inactive) in the assay with EKVX; > 100 µM (inactive) with UO-31; 41.5 µM (inactive) in the assay on HOP-62.
